According to patent publication US20110021556A1, “PYRROLIDINYL DERIVATIVES AND USES THEREOF” (Hoffman-La Roche, Inc., priority 2008, published 2011):
Structures can show the parent of a compound that is named as a salt.

melting point [°C] | Structure (SMILES)
120.9 to 123 | c1ccc(CC2(c3ccc4sccc4c3)CCNC2)cc1 (centres unmarked) (as salt: hydrochloride)
169.9 to 171.1 | c1ccc(CC2(c3ccc4[nH]ccc4c3)CCNC2)nc1 (centres unmarked)
